Target: T1, human D3 dopamine receptor (Homo sapiens, UniProt P35462)
T1 construct: expressed in transfected cells; host or cells: HEK-293 EBNA cells, transient transfection; membrane homogenate
Assay: radioligand binding ([3H]-spiperone) to human D3 receptor membranes
Conditions: [3H]-spiperone displacement, membranes of HEK-293 EBNA cells transiently expressing human D3
Experimental: The ability of the compounds to bind to the D3 receptors was determined using radioligand binding to cloned receptors selectively expressed in HEK-293 EBNA cells.
HEK-293 EBNA cells were transiently transfected with expression plasmids encoding for the human D3 dopamine receptor. The cells were harvested 48 h post-transfection, washed three times with cold PBS and stored at −80° C. prior to use. The pellet was suspended in cold 50 mM Tris-HCl buffer containing 10 mM EDTA (pH 7.4) and homogenized with a Polytron (Kinematica AG, Basel, Switzerland) for 20-30 sec at 12.000 rpm. After centrifugation at 48.000×g for 30 mM at 4° C., the pellet was resuspended in cold 10 mM Tris-HCl buffer containing 0.1 mM EDTA (pH 7.4), homogenized, and centrifuged as above. This pellet was further resuspended in a smaller volume of ice cold 10 mM Tris-HCl buffer containing 0.1 mM EDTA (pH 7.4) and homogenized with a Polytron for 20-30 sec at 12.000 rpm. The protein content of this homogenate was determined with the Bio-Rad (radford) Protein Assay (Biorad Laboratories GmbH, München, Germany) according to the instructions of the manufacturer using gamma globulin as the standard. This homogenate was stored at −80° C. in aliquots and thawed immediately prior to use.
Aliquots of membrane preparations were thawed at RT, resuspended in assay buffer (50 mM Tris-HCl, 120 mM NaCl, 5 mM MgCl2, 1 mM E TA, 5 mM KCl, 1.5 mM CaCl2, pH=7.4), homogenized with a Polytron for 20-30 sec at 12.000 rpm and adjusted to a final concentration of approximately 7.5 μg protein/well.
The binding affinity (Ki) of the compounds was determined using radioligand binding. Membranes were incubated in a total volume of 200 with a fixed concentration of radioligand (final concentration approximately 0.5 nM [^3H]-spiperone) and ten concentrations of test compound in ranging between 10 μM-0.1 nM for 1 at RT. At the end of the incubation, the reaction mixtures were filtered on to unifilter 96-well white microplates with bonded GF/C filters (Packard BioScience, Zürich, Switzerland; preincubated for 1 h in 0.1% polyethylenimine (PEI) in assay buffer) with a Filtermate 196 harvester (Pack rd BioScience) and washed 3 times with cold assay buffer. The nonspecific binding was determined with equally composed reaction mixtures in the presence of 10 μM unlabelled spiperone. Per well 45 μl of Microscint 40 (Perkin Elmer, Schwerzenbach, Switzerland) was added, plate, for sealed, shaken for 20 mM and counted for 3 mM on a Topcount Microplate Scintillation Counter (Canberra Packard SA, Zürich, Switzerland) with quenching correction.
The CPM value for each duplicate of a concentration of competing compound was averaged (y1), then the % specific binding was calculated according to the equation (((y1−non-specific)/(total binding-non-specific))×100). Graphs were plotted with the % specific binding using XLfit, a curve fitting program that iteratively plots the data using Levenburg Marquardt algorithm. The single site competition analysis equation used was y=A+((B−A)/(1+((x/C)^D))), where y is the % specific binding, A is the minimum y, B is the maximum y, C is the IC50, x is the log10 of the concentration of the competing compound and D is the slope of the curve (the Hill Coefficient). From these curves the IC50 (inhibition concentration at which 50% specific binding of the radioligand was displaced) and Hill coefficient were determined. The affinity constant (Ki) was calculated using the Cheng-Prusoff equation Ki=(IC50/1+([L]/Kd), where [L] is the concentration of radioligand and Kd is the dissociation constant of the radioligand at the receptor as determined by the saturation isotherm.

T1 sequence (P35462 whole entry): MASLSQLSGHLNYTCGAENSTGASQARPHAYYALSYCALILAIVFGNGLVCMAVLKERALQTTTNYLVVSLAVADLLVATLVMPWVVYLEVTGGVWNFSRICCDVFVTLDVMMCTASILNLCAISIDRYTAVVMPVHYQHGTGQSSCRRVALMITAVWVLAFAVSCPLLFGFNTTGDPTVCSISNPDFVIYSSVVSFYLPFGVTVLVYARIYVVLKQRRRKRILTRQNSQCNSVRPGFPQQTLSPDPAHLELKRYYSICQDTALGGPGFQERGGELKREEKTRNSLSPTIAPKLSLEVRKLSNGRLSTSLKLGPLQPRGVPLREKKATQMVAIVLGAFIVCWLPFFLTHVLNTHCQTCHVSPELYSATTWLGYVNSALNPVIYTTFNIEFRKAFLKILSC

Ki	SMILES
15.6 nM	COCC(=O)N[C@H]1CC[C@H](CCN2CCN(c3noc4c(F)cc(F)cc34)CC2)CC1 [Example 3, N-(trans-4-{2-[4-(5,7-Difluoro-benzo[d]isoxazol-3-yl)-piperazin-1-yl]-ethyl}-cyclohexyl)-2-methoxy-acetamide]
3.66 nM	COCCC(=O)N[C@H]1CC[C@H](CCN2CCN(c3noc4c(F)cc(F)cc34)CC2)CC1 [Example 4, N-(trans-4-{2-[4-(5,7-Difluoro-benzo[d]isoxazol-3-yl)-piperazin-1-yl]-ethyl}-cyclohexyl)-3-methoxy-propionamide]
8.57 nM	CC(=O)N[C@H]1CC[C@H](CCN2CCN(c3noc4ccc(F)c(F)c34)CC2)CC1 [Example 10, N-(trans-4-{2-[4-(4,5-Difluoro-benzo[d]isoxazol-3-yl)-piperazin-1-yl]-ethyl}-cyclohexyl)-acetamide]
9.71 nM	COCCC(=O)N[C@H]1CC[C@H](CCN2CCN(c3noc4ccc(F)c(F)c34)CC2)CC1 [Example 11, N-(trans-4-{2-[4-(4,5-Difluoro-benzo[d]isoxazol-3-yl)-piperazin-1-yl]-ethyl}-cyclohexyl)-3-methoxy-propionamide]

Second part, the compound before the results:

SMILES	Ki
CC(=O)N[C@H]1CC[C@H](CCN2CCN(c3noc4c(F)cc(F)cc34)CC2)CC1 [Example 1, N-(trans-4-{2-[4-(5,7-Difluoro-benzo[d]isoxazol-3-yl)-piperazin-1-yl]-ethyl}-cyclohexyl)-acetamide]	3.7 nM
O=C(CO)N[C@H]1CC[C@H](CCN2CCN(c3noc4c(F)cc(F)cc34)CC2)CC1 [Example 2, N-(trans-4-{2-[4-(5,7-Difluoro-benzo[d]isoxazol-3-yl)-piperazin-1-yl]-ethyl}-cyclohexyl)-2-hydroxy-acetamide]	3.88 nM
CO[C@H]1CC[C@H](CC(=O)N[C@H]2CC[C@H](CCN3CCN(c4noc5c(F)cc(F)cc45)CC3)CC2)CC1 [Example 5, N-(trans-4-{2-[4-(5,7-Difluoro-benzo[d]isoxazol-3-yl)-piperazin-1-yl]-ethyl}-cyclohexyl)-2-(trans-4-methoxy-cyclohexyl)-acetamide]	11.8 nM
CCC(=O)N[C@H]1CC[C@H](CCN2CCN(c3noc4c(F)cc(F)cc34)CC2)CC1 [Example 6, N-(trans-4-{2-[4-(5,7-Difluoro-benzo[d]isoxazol-3-yl)-piperazin-1-yl]-ethyl}-cyclohexyl)-propionamide]	4.53 nM
O=C(CC1CC1)N[C@H]1CC[C@H](CCN2CCN(c3noc4c(F)cc(F)cc34)CC2)CC1 [Example 7, 2-Cyclopropyl-N-(trans-4-{2-[4-(5,7-difluoro-benzo[d]isoxazol-3-yl)-piperazin-1-yl]-ethyl}-cyclohexyl)-acetamide]	2.72 nM
O=C(N[C@H]1CC[C@H](CCN2CCN(c3noc4c(F)cc(F)cc34)CC2)CC1)C1CCOCC1 [Example 8, Tetrahydro-pyran-4-carboxylic acid (trans-4-{2-[4-(5,7-difluoro-benzo[d]isoxazol-3-yl)-piperazin-1-yl]-ethyl}-cyclohexyl)-amide]	9.81 nM
NC(=O)CC(=O)N[C@H]1CC[C@H](CCN2CCN(c3noc4c(F)cc(F)cc34)CC2)CC1 [Example 9, N-(trans-4-{2-[4-(5,7-Difluoro-benzo[d]isoxazol-3-yl)-piperazin-1-yl]-ethyl}-cyclohexyl)-malonamide]	5.94 nM
